According to patent publication US20150366845A1, “PHARMACEUTICAL COMPOSITION FOR DISEASES CAUSED BY PATHOGENIC MICROORGANISMS SUCH AS ASPERGILLUS” (POLA PHARMA INC., priority 2013, published 2015):

Experiments:
Trichomonas vaginalis = experiment: Growth inhibition of clinically isolated Trichomonas vaginalis in Trichomonas medium F (Neutral Red colour, inverted microscope); format: cell-based; details: for Color / Result of microscopic observation: 72 hours at 37° C.; for Result of microscopic observation: inverted microscope
Method: The effect on Trichomonas vaginalis was investigated for luliconazole of the compound represented by the general formula (1). That is, 5×10^6 cells of clinically isolated Trichomonas vaginalis were seeded in Trichomonas medium F (6.5 mL, contained in tube) produced by Fujiyakuhin Co., Ltd. containing Neutral Red as a marker, and the preculture was carried out for 72 hours (preculture). It was confirmed that Trichomonas grew, the acid was actively produced, and Neutral Red was changed to be yellow. After that, the preculture was added to Trichomonas medium F by every 100 μL in order to carry out the main culture, to which 0.5 mL of a test solution was added. In this situation, the number of protozoas in the solution of preculture was 1.5×10^5 cells/mL. Three series of test solutions were prepared, in which the luliconazole concentrations were 200 μM (final concentration: 35.2 μM), 100 μM (final concentration: 17.6 μM), and 50 μM (final concentration: 8.8 μM), as luliconazole dissolved in 10% methanol saline solution. 0.5 mL of vehicle was added as a control. As for the vehicle, 10% methanol saline solution (final concentration: 0 μM) was used. Stirring was sufficiently performed after the addition, followed by culturing at 37° C. for 72 hours. After the completion of the cultivation, the color was discriminated, and the state of protozoas was observed by using an inverted microscope. […] The same or equivalent investigation as that of Example 1 was performed while changing luliconazole to lanoconazole.

[1] = system: Chlamydia trachomatis (D/UW3/Cx); experiment: Anti-intracellular parasite action, Chlamydia inclusion bodies in HeLa 229 host cells (fluorescence staining); format: cell-based
Method: The anti-intracellular parasite action was investigated by using Chlamydia trachomatis (D/UW3/Cx). That is, Chlamydia trachomatis was cultured in the presence of ×2 dilution series of 8 to 64 μg/ml of luliconazole by using HeLa 229 cells as the host. MEM added with 8% thermally inactivated FBS, to which 1 μg/ml of cyclohexamide was added, was used as the medium, and the culture was performed for 72 hours in 5% carbon dioxide gas at 37° C. After the culture, inclusion bodies were subjected to the fluorescent staining to be apple green with Chlamydia FA reagent “Seiken” (produced by DENKA SEIKEN Co., Ltd.), and the observation was performed by using a fluorescence microscope.

[2] = final concentration 8.8 μM, Neutral Red marker
[3] = final concentration 17.6 μM, Neutral Red marker
[4] = final concentration 35.2 μM, Neutral Red marker (yellow = acid production by growing Trichomonas)

SMILES | Color (Trichomonas vaginalis; [2]) | Result of microscopic observation (Trichomonas vaginalis; final concentration 8.8 μM) | Color (Trichomonas vaginalis; [3]) | Result of microscopic observation (Trichomonas vaginalis; final concentration 17.6 μM) | Color (Trichomonas vaginalis; [4]) | Result of microscopic observation (Trichomonas vaginalis; final concentration 35.2 μM) | observation result of Chlamydia inclusion bodies ([1]; treatment with 8 μg/mL, FIG. 1 panel (A)) | observation result of Chlamydia inclusion bodies ([1]; treatment with 16 μg/mL, FIG. 1 panel (B)) | observation result of Chlamydia inclusion bodies ([1]; treatment with 32 μg/mL, FIG. 1 panel (C)) | growth of Trichomonas (Trichomonas vaginalis; at 8.8 μM)
N#C/C(=C1/SCC(c2ccccc2Cl)S1)n1ccnc1 (stereo not shown) [lanoconazole, 4-(2-chlorophenyl)-1,3-dithiolane-2-ylidene-1-imidazolyl acetonitrile] | yellow | large number of protozoas were observed | red | protozoas were observed slightly | red | no protozoa was observed | – | – | – | –
N#C/C(=C1/SC[C@@H](c2ccc(Cl)cc2Cl)S1)n1ccnc1 [luliconazole, (R)-(−)-(E)-[4-(2,4-dichlorophenyl)-1,3-dithiolane-2-ylidene]-1-imidazolyl acetonitrile] | yellow | protozoas were observed slightly | red | no protozoa was observed | red | no protozoa was observed | dot-shaped Chlamydia inclusion bodies stained apple green were observed | dot-shaped Chlamydia inclusion bodies stained apple green were observed | No inclusion body was found | inhibits the growth
